Experimental data as given in ChEMBL document CHEMBL1201862, “PubChem BioAssay data set” (2004).
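Method: 48-hour compound exposure of cells in 96-well plates, five concentrations, linear interpolation of endpoints. GI50 is the concentration that inhibits growth by half.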 Active and inactive are the calls of the source. Rule as the data show it: active = GI50 up to about 1.1 µM and inactive = higher.

Columns and labels:
Test in all cases: growth of human tumour cells (NCI), 48 h
NCI-H23 = test system: NCI-H23
SN12C = test system: SN12C
HT-29 = test system: HT-29
K562 = test system: K562
UO-31 = test system: UO-31
SF-295 = test system: SF-295
SNB-75 = test system: SNB-75
NCI-H522 = test system: NCI-H522
SK-OV-3 = test system: SK-OV-3
ACHN = test system: ACHN
Malme-3M = test system: Malme-3M
M14 = test system: M14
HOP-62 = test system: HOP-62
RPMI-8226 = test system: RPMI-8226
SNB-19 = test system: SNB-19
OVCAR-4 = test system: OVCAR-4
SF-539 = test system: SF-539
IGROV-1 = test system: IGROV-1
CAKI-1 = test system: CAKI-1

SMILES	GI50 (NCI-H23)	GI50 (SN12C)	GI50 (HT-29)	GI50 (K562)	GI50 (UO-31)	GI50 (SF-295)	GI50 (SNB-75)	GI50 (NCI-H522)	GI50 (SK-OV-3)	GI50 (ACHN)	GI50 (Malme-3M)	GI50 (M14)	GI50 (HOP-62)	GI50 (RPMI-8226)	GI50 (SNB-19)	GI50 (OVCAR-4)	GI50 (SF-539)	GI50 (IGROV-1)	GI50 (CAKI-1)
Cc1ccc(NC(=O)CSc2nnc(Cc3ccccc3)o2)c(C)c1	> 100 µM (inactive)	> 100 µM (inactive)	> 100 µM (inactive)	> 100 µM (inactive)	> 100 µM (inactive)	> 100 µM (inactive)	> 100 µM (inactive)	> 100 µM (inactive)	> 100 µM (inactive)	> 100 µM (inactive)	> 100 µM (inactive)	> 100 µM (inactive)	> 100 µM (inactive)	> 100 µM (inactive)	> 100 µM (inactive)	> 100 µM (inactive)	–	–	–
c1ccc(P(=Nc2ccccc2N=P(c2ccccc2)(c2ccccc2)c2ccccc2)(c2ccccc2)c2ccccc2)cc1	0.337 µM (active)	0.293 µM (active)	1.3 µM (inactive)	1.09 µM (active)	2.31 µM (inactive)	1.11 µM (active)	0.371 µM (active)	0.274 µM (active)	0.327 µM (active)	0.869 µM (active)	0.256 µM (active)	1.44 µM (inactive)	0.558 µM (active)	1.74 µM (inactive)	0.333 µM (active)	1.25 µM (inactive)	1.16 µM (inactive)	0.498 µM (active)	0.444 µM (active)
O=C(/C=C/c1ccc(O)cc1)c1cc(Cl)ccc1O	40.5 µM (inactive)	42.4 µM (inactive)	34.5 µM (inactive)	24.1 µM (inactive)	21.8 µM (inactive)	35.2 µM (inactive)	46.5 µM (inactive)	17.2 µM (inactive)	> 100 µM (inactive)	70.8 µM (inactive)	47.2 µM (inactive)	55.3 µM (inactive)	> 100 µM (inactive)	–	44.9 µM (inactive)	38.8 µM (inactive)	18.8 µM (inactive)	57.4 µM (inactive)	> 100 µM (inactive)
CC(=O)c1ccc(NCc2cc(O)ccc2O)cc1	22.5 µM (inactive)	25.5 µM (inactive)	32.1 µM (inactive)	32.2 µM (inactive)	11.4 µM (inactive)	17.8 µM (inactive)	13.7 µM (inactive)	31.3 µM (inactive)	23 µM (inactive)	18.5 µM (inactive)	–	19.1 µM (inactive)	20.6 µM (inactive)	5.38 µM (inactive)	38.8 µM (inactive)	18.5 µM (inactive)	14.5 µM (inactive)	> 100 µM (inactive)	17.9 µM (inactive)
COc1cc([C@@H]2c3cc(O)c(OC)cc3C=C(C(N)=O)[C@H]2C(N)=O)ccc1O	> 100 µM (inactive)	> 100 µM (inactive)	> 100 µM (inactive)	> 100 µM (inactive)	> 100 µM (inactive)	> 100 µM (inactive)	> 100 µM (inactive)	> 100 µM (inactive)	–	> 100 µM (inactive)	> 100 µM (inactive)	> 100 µM (inactive)	> 100 µM (inactive)	> 100 µM (inactive)	> 100 µM (inactive)	–	> 100 µM (inactive)	> 100 µM (inactive)	> 100 µM (inactive)
O=C(N/C(=C\c1ccc(/C=C(\NC(=O)c2ccccc2)c2nc3cc([N+](=O)[O-])ccc3[nH]2)cc1)c1nc2cc([N+](=O)[O-])ccc2[nH]1)c1ccccc1	25.4 µM (inactive)	71.3 µM (inactive)	30.3 µM (inactive)	18.3 µM (inactive)	46.7 µM (inactive)	43.1 µM (inactive)	68.5 µM (inactive)	11.4 µM (inactive)	> 100 µM (inactive)	23.2 µM (inactive)	> 100 µM (inactive)	30.8 µM (inactive)	> 100 µM (inactive)	12 µM (inactive)	> 100 µM (inactive)	39.5 µM (inactive)	80.4 µM (inactive)	82.8 µM (inactive)	> 100 µM (inactive)
c1cnc2c(c1)Nc1cnncc1S2	> 100 µM (inactive)	> 100 µM (inactive)	> 100 µM (inactive)	> 100 µM (inactive)	84.1 µM (inactive)	> 100 µM (inactive)	12.2 µM (inactive)	> 100 µM (inactive)	> 100 µM (inactive)	> 100 µM (inactive)	> 100 µM (inactive)	> 100 µM (inactive)	> 100 µM (inactive)	> 100 µM (inactive)	> 100 µM (inactive)	> 100 µM (inactive)	> 100 µM (inactive)	> 100 µM (inactive)	24.1 µM (inactive)
CSc1nsc(-c2ccccc2)[s+]1.[O-][Cl+3]([O-])([O-])[O-]	–	> 100 µM (inactive)	–	64.1 µM (inactive)	> 100 µM (inactive)	–	> 100 µM (inactive)	> 100 µM (inactive)	> 100 µM (inactive)	> 100 µM (inactive)	> 100 µM (inactive)	> 100 µM (inactive)	> 100 µM (inactive)	> 100 µM (inactive)	> 100 µM (inactive)	> 100 µM (inactive)	> 100 µM (inactive)	> 100 µM (inactive)	> 100 µM (inactive)
COc1ccc(/C(C#N)=C2/O/C(=N/N)C(c3ccc(OC)c(OC)c3)C2=O)cc1OC (centres undefined)	> 100 µM (inactive)	> 100 µM (inactive)	> 100 µM (inactive)	> 100 µM (inactive)	> 100 µM (inactive)	> 100 µM (inactive)	> 100 µM (inactive)	> 100 µM (inactive)	> 100 µM (inactive)	> 100 µM (inactive)	> 100 µM (inactive)	> 100 µM (inactive)	–	> 100 µM (inactive)	–	–	> 100 µM (inactive)	> 100 µM (inactive)	> 100 µM (inactive)
Cc1cc(Cl)ccc1NC(=O)CC1SC(NC(=O)c2ccccc2Cl)=NC1=O (centres undefined)	50.2 µM (inactive)	17.7 µM (inactive)	21.5 µM (inactive)	17 µM (inactive)	21.6 µM (inactive)	> 100 µM (inactive)	19.2 µM (inactive)	15.1 µM (inactive)	–	16.9 µM (inactive)	19.7 µM (inactive)	17.1 µM (inactive)	–	15.2 µM (inactive)	> 100 µM (inactive)	20.9 µM (inactive)	19.2 µM (inactive)	38.2 µM (inactive)	19.2 µM (inactive)
CC(=O)O/C=C\OC1CCCC1	> 100 µM (inactive)	–	> 100 µM (inactive)	> 100 µM (inactive)	> 100 µM (inactive)	> 100 µM (inactive)	55 µM (inactive)	> 100 µM (inactive)	> 100 µM (inactive)	> 100 µM (inactive)	> 100 µM (inactive)	> 100 µM (inactive)	> 100 µM (inactive)	> 100 µM (inactive)	> 100 µM (inactive)	> 100 µM (inactive)	> 100 µM (inactive)	> 100 µM (inactive)	> 100 µM (inactive)
COc1cccc(NC(=O)/C(CC(=O)CC(c2ccccc2)c2c(O)c3ccccc3oc2=O)=N\NC(C)(C)C)c1OC (centres undefined)	–	–	–	44.9 µM (inactive)	72.1 µM (inactive)	> 100 µM (inactive)	27.7 µM (inactive)	–	> 100 µM (inactive)	34.4 µM (inactive)	> 100 µM (inactive)	44.5 µM (inactive)	86.1 µM (inactive)	29.3 µM (inactive)	> 100 µM (inactive)	> 100 µM (inactive)	34.5 µM (inactive)	64.3 µM (inactive)	36.1 µM (inactive)
COC(=O)CC1(O)C(=O)OCc2c1cc1n(c2=O)Cc2c-1nc1ccccc1c2OC (centres undefined)	0.188 µM (active)	0.097 µM (active)	2.17 µM (inactive)	0.918 µM (active)	1.04 µM (active)	0.151 µM (active)	0.232 µM (active)	0.29 µM (active)	0.266 µM (active)	0.0689 µM (active)	3.3 µM (inactive)	0.188 µM (active)	0.0461 µM (active)	0.582 µM (active)	0.6 µM (active)	4.82 µM (inactive)	0.111 µM (active)	2.94 µM (inactive)	0.0673 µM (active)
O=C(Cc1nc2ccc([N+](=O)[O-])cc2nc1O)C(=O)Nc1ccccc1[N+](=O)[O-]	> 100 µM (inactive)	–	> 100 µM (inactive)	> 100 µM (inactive)	> 100 µM (inactive)	> 100 µM (inactive)	> 100 µM (inactive)	20.3 µM (inactive)	> 100 µM (inactive)	> 100 µM (inactive)	> 100 µM (inactive)	> 100 µM (inactive)	–	–	> 100 µM (inactive)	> 100 µM (inactive)	> 100 µM (inactive)	> 100 µM (inactive)	> 100 µM (inactive)
O=C(/C=C/c1cccs1)c1ccc(Cl)cc1	88.5 µM (inactive)	51.5 µM (inactive)	39.7 µM (inactive)	> 10 µM (inactive)	82.2 µM (inactive)	99.3 µM (inactive)	> 100 µM (inactive)	–	> 100 µM (inactive)	> 100 µM (inactive)	> 100 µM (inactive)	–	> 100 µM (inactive)	22.2 µM (inactive)	> 100 µM (inactive)	–	> 100 µM (inactive)	> 100 µM (inactive)	–
COC(=O)c1cc(Cl)ccc1NC(=O)c1ccc([N+](=O)[O-])cc1	18.8 µM (inactive)	–	14.8 µM (inactive)	26.9 µM (inactive)	17.2 µM (inactive)	2.42 µM (inactive)	6.73 µM (inactive)	–	19.7 µM (inactive)	5.97 µM (inactive)	23 µM (inactive)	29 µM (inactive)	15.2 µM (inactive)	20.2 µM (inactive)	–	3.33 µM (inactive)	20.4 µM (inactive)	19.8 µM (inactive)	15.3 µM (inactive)
